Our source for the IC50 values is patent US6162830A, “Benzenesulfonamide inhibitors of PDE-IV and their therapeutic use” (Warner-Lambert Company, priority 2000, dated 2000).

Broadly, the IC50 is the concentration needed to halve the response being measured. Low readings indicate inhibition by little substance, high ones a need for much substance.

The experiment concerns PDE-IV. As to the kind of experiment: PDE-IV Assay Procedure (SPA, 3H-cAMP, U937 lysate). Format: biochemical. The conditions noted are these: U937 cell lysate as PDE-IV source; 200 nM cAMP, 8 nM 3H-cAMP; pH 8.0; 2% DMSO; 1 hour at 37° C.; initially tested at 10, 3, 1, 0.3, 0.1 μM. The protocol:
Representative compounds to be tested were diluted in 96-well plates. The compounds were either received as a 10 mM stock solution in DMSO, or as a solid which was resuspended to a concentration of 10 mM in DMSO. The compounds were initially tested at 10, 3, 1, 0.3, and 0.1 μM to calculate an IC50. In some cases, plates containing diluted compounds were frozen before being assayed. In these cases, the plates were thawed for 15 minutes at 37° C. and agitated before proceeding.
Two microliters of the diluted compounds on Rolipram were spotted into an assay plate. Ninety-eight microliters of reaction mixture containing PDE-IV enzyme were added to each well. The plate was then agitated for 2 minutes at a setting of 3.5 on a vortex and incubated for 1 hour at 37° C. The reaction was terminated with 50 μl of 0.5X SPA beads, and the reaction tray was allowed to incubate at room temperature for 20 minutes before radioactivity was measured using standard instrumentation.
The reaction mixture contained 35.2 mM Tris pH 8.0, 9.4 mM MgCl2, 4 mM β-mercapotoethanol, 200 nM cAMP, 8 nM ^3 H-cAMP, 2% DMSO 1% U937 lysate (from ABS). The reaction mixture was prepared by adding […] H2 O to 10 mL 10X Assay Buffer, 40 μL 1 μCi/μL ^3 H-cAMP, 20 μL 1 mM cAMP (cAMP stock made fresh each time), and 1 mL U937 cell lysate. 10X assay buffer was prepared by mixing 400 mM Tris Base with 400 mM Tris HCl to pH 8.0, adding to 100 mL of this Tris buffer solution, 1.017 g MgCl2, 319 μL μ-mercaptoethanol. 0.5X SPA beads was prepared by adding 500 mg beads to 56 mL H2 O for a final concentration of 8.9 mg/mL beads and 9 mM zinc sulfate.
Compound `CCCN(CCC)S(=O)(=O)c1ccc(OC)c(OC)c1` [Example 4, N,N-Dipropyl-3,4-dimethoxybenzenesulfonamide] showed an IC50 of 0.46 µM. The same measure for `C=CCN(CC=C)S(=O)(=O)c1ccc(OC)c(OC)c1` [Example 5, N,N-Di-(2-propenyl)-3,4-dimethoxybenzenesulfonamide]: 0.45 µM; for `CCOc1ccc(S(=O)(=O)N(C)C)cc1OCC` [Example 6, N,N-Dimethyl-3,4-diethoxybenzenesulfonamide]: 0.28 µM. The same measure for `COc1ccc(S(=O)(=O)N2CCCCC2)cc1OC` [Example 7, N-(3,4-dimethoxybenzenesulfonyl)piperidine]: 3.6 µM. The result for `COc1ccc(S(=O)(=O)N2CCCC2)cc1OC` [Example 8, N-(3,4-dimethoxybenzenesulfonyl)pyrrolidine] reads 3.2 µM. `COc1ccc(S(=O)(=O)NC2CCCCC2)cc1OC` [Example 9, N-(3,4-dimethoxybenzenesulfonyl)cyclohexylamine] gave a concentration for half-maximal inhibition (IC50) of 2.2 µM. The same measure for `C#CCN(C)S(=O)(=O)c1ccc(OCC)c(OCC)c1` [Example 10, N-(2-Propynyl)-N-methyl-3,4-diethoxybenzenesulfonamide]: 0.17 µM. The same measure for `CCN(C)S(=O)(=O)c1ccc(OC)c(OC)c1` [Example 11, N-Ethyl-N-methyl-3,4-dimethoxybenzenesulfonamide]: 0.7 µM; for `CCCN(C)S(=O)(=O)c1ccc(OC)c(OC)c1` [Example 12, N-Propyl-N-methyl-3,4-dimethoxybenzenesulfonamide]: 0.47 µM.

In turn, `C=CCN(C)S(=O)(=O)c1ccc(OC)c(OC)c1` [Example 15, N-(2-Propenyl)-N-methyl-3,4-dimethoxybenzenesulfonamide] registered a 50% inhibitory concentration (IC50) of 0.66 µM.

As for `CC=CCN(C)S(=O)(=O)c1ccc(OC)c(OC)c1` [Example 16, N-(2-Butenyl)-N-methyl-3,4-dimethoxybenzenesulfonamide], the midpoint of inhibition, the IC50, lay at 1.56 µM.

Compound `C=CCN(C)S(=O)(=O)c1ccc(OCC)c(OCC)c1` [Example 17, N-(2-Propenyl)-N-methyl-3,4-diethoxybenzenesulfonamide] came in with a half-maximal inhibitory concentration (IC50) of 0.02 µM. The result for `COc1ccc(S(=O)(=O)N(C)CC#N)cc1OC` [Example 23, N-(methylenenitrile)-N-methyl-3,4-dimethoxybenzenesulfonamide] reads 1.76 µM.
